As usually defined, the EC50 is the concentration that produces a half-maximal response.

“Also recorded” adds a separate entry of the source. Read-outs that look alike come from different tables or passages of the source.

Here are results for ten molecules from patent publication US6790608B2, “Methods of identifying and ADP-glucose receptor ligand, agonist or antagonist” (The Regents of the University of California, priority 2000, dated 2004).

Experiment [1] has as its target T1, human ADP-glucose receptor (Homo sapiens, UniProt Q9H244).
T1 construct: such that a nucleic acid molecule encoding a full-length ADP-glucose receptor can be amplified; expressed in transfected cells
The experiment can be described thus: Intracellular calcium mobilization (FLIPR, Fluo4-AM) in CHO cells transiently transfected with the cloned receptor. The format is cell-based. To be noted: for induction of increase in intracellular Ca2+ / receptor activation: CHO cells cotransfected with receptor, Gα16 and chimeric Gαqi3; for increase in intracellular Ca2+ in untransfected cells: untransfected CHO cells. The procedure: (§1) In order to characterize the function of the encoded receptor, the pCDNA3.1 expression construct containing the amplified receptor gene was transiently transfected into human embryonic kidney (HEK 293) cells or Chinese hamster ovary (CHO) cells. HEK 293 cells were cultured in DMEM containing 10% fetal bovine serum (FBS), and CHO cells were cultured in alpha-MEM with 5% FBS. All cells were kept at 37° C. in a 5% CO2 atmosphere.
(§2) For certain experiments, the cells were transiently cotransfected with the receptor construct and equimolar ratios of the G-protein alpha subunit Gα16 and/or the chimeric subunit […] in pCDNA3.1 (described in Saito et al., Nature 265-269 (1999)). For functional assays measuring intracellular calcium, twenty-four hours after transfection, cells were seeded into black clear-bottom 96-well plates at a density of 50,000 cells/well. Following overnight incubation the cells were loaded for 1 h with 1 μM of the fluorescent calcium indicator dye Fluo4-AM (Molecular Probes) dissolved in assay buffer containing Hank's balanced salts, 20 mM HEPES, 1% FBS, 2.5 mM probenecid, pH 7.4. After loading, the cells were washed three times with assay buffer without FBS. Addition of drugs and measurement of changes in intracellular calcium were performed using a fluorimetric imaging plate reader (FLIPR, Molecular Devices). Agonist responses were determined using the maximum change in fluorescence over baseline.
To enforce coupling of the novel receptor to the phospholipase C pathway, CHO cells were transiently cotransfected with expression constructs containing the amplified receptor DNA, Gα16 and a chimeric Gαq subunit carrying the C-terminal tail of Gαi3.
Dose-response curves were calculated using GraphPad Prism (GraphPad Software Inc.).
In order to determine the preferential G-protein coupling of the ADP-glucose receptor, mobilization of [Ca^2+]i was examined in CHO cells expressing either the receptor alone or in combination with either Gα16 or Gαqi3.

In experiment [2] the test system is endogenous ADP-glucose receptor in HEK 293 cells. Briefly: Intracellular calcium mobilization (FLIPR, Fluo4-AM) in HEK 293 cells. It is filed as cell-based, human. The procedure: as §1, §2
The ADP-glucose receptor construct was also expressed in HEK 293 cells.

For a further experiment, the system named is guinea pig ileum. The experiment can be described thus: Isometric contractions of guinea pig ileal segments in organ bath. The procedure:
Ileal segments (about 2 cm) were prepared from male guinea pigs euthanized by asphyxiation with CO2 and mounted in an organ bath filled with Krebs-Ringer bicarbonate (KRB) buffer as described in Thomas et al., Mol. Pharmacol. 44:102-110 (1993). Isometric contractions of the preparations were measured with a force transducer and recorded on a polygraph (Grass Instruments). The contractile responses are expressed as the mass (g) required to generate the measured force. For contractile measurements of field-stimulations, ilea were mounted between platinum ring electrodes connected to a stimulator (Grass SD9). Ilea were electrically stimulated (40 mV, 8 ms duration, 0.2 Hz) for 5 min followed by a resting period of 8-10 min.
Drugs were diluted in KRB and added directly to the bath. For intraluminal drug application a polyethylene tube (I.D.: 2 mm; length: 1.2 cm) was inserted about 3 mm deep into the ileum and fixed with a surgical thread. The other end of the preparation was closed tightly by a thread. The intubated ilea were mounted in the organ bath in such a way that the open end of the polyethylene tube was extending above the buffer surface. Drugs were administered to the ileal lumen using a Hamilton syringe. After each incubation, ilea were washed three times with KRB and allowed to equilibrate for at least 10 min. For some experiments ilea were removed from animals that had been treated with 100 μg/kg pertussis toxin three days prior to the experiment. Dose response curves were obtained in separate experiments for each drug concentration tested in duplicate and EC50 values were calculated using GraphPad Prism.
However, due to the irregular nature of these contractions it was not possible to study dose-response relationships of pharmacological agents in such a preparation. Therefore, field-stimulation was used to elicit contractions that are known to be mediated by neuronal release of acetylcholine activating M3 muscarinic receptors (Cowie et al., Brit. J. Pharmacol. 64:565-580 (1978); Kilbinger et al., Eur. J. Pharmacol. 103:313-320 (1984)).

The next experiment concerns rat arterial tissues. The experiment can be described thus: Contraction of precontracted rat arterial rings in organ bath. To be noted: for EC50: read-out: EC50 of relaxation. Here is the method:
Rat arterial tissues were prepared as described previously (Duckles, S. P., J. Pharmacol. Exp. Ther. 240: 697-700 (1987); Sara Sangha et al., J. Appl. Physiol. 88: 507-517 (2000)). Briefly, male Wistar rats (250 g) were sacrificed by decapitation. The thoracic and abdominal aorta and the carotid artery were immediately removed and cleaned of adhering tissue. Arteries were cut into rings (about 3 mm in length) and mounted into an organ bath filled with Kreb-Ringer-bicarbonate buffer at 37° C. (buffer composition: 119.2 mM NaCl, 25 mM NaHCO3, 4.9 mM KCl, 1.2 mM MgSO4, 11.1 mM glucose, 0.114 mM ascorbic acid, pH 7.4). The buffer was aerated by bubbling with 95% O2:5% CO2. Arterial rings were connected to a force transducer and isometric contractions of the preparations were recorded using MacLab. The contractile responses are expressed as the mass (g) required to generate the measured force. The arterial preparations were equilibrated for one hour at a resting force of 2 g and then challenged several times with 100 mM KCl to establish a baseline.
To determine the effect of ADP-glucose on evoked contractions, arterial rings were precontracted with either 0.3 μM phenylephrine or 0.3 μM serotonin. ADP-glucose was subsequently added to the arterial rings in a cumulative manner to establish a dose-response relationship between ADP-glucose concentration and arterial ring contraction. At the end of each experiment, residual constriction was reversed by the addition of 1 μM acetylcholine. Each arterial preparation was tested in triplicate with each cumulative dosage scheme carried out at least twice. Data are expressed as means±S.E.M. and dose-response curves were calculated with Prism (GraphPad, San Diego).

The test system of the next experiment is isolated frog heart. To be noted: cyclic perfusion; cited from earlier work.
The next experiment has as its system unanesthetised frogs. To be noted: systemic administration; cited from earlier work.
Setting [3] is: CHO cells transiently transfected with receptor construct together with Gα16 and Gαqi3, read-out: EC50 of transient increase in [Ca2+]i.
Setting [4] is: untransfected HEK 293 cells, endogenous receptor, read-out: EC50 of [Ca2+]i increase.
[5] abbreviates: carotid arteries, serotonin-induced constrictions.

T1 sequence (Q9H244 whole entry): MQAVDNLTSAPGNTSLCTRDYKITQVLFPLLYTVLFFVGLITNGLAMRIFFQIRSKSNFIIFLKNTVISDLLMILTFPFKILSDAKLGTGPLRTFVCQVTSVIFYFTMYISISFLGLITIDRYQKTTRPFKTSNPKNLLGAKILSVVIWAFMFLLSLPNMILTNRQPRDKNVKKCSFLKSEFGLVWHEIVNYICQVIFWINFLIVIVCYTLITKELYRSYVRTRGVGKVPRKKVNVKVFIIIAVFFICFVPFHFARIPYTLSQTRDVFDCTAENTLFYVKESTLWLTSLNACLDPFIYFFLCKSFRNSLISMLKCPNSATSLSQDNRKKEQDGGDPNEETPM

For the molecule `Nc1ncnc2c1ncn2[C@@H]1O[C@H](COP(=O)(O)O)[C@@H](O)[C@H]1O` [AMP], the “induction of increase in intracellular Ca2+ / receptor activation” value in experiment [1] is “only ADP-glucose and ADP-ribose induced a dose-dependent and transient increase”.

`Nc1ncnc2c1ncn2[C@@H]1O[C@H](COP(=O)(O)OP(=O)(O)O[C@H]2O[C@H](CO)[C@@H](O)[C@H](O)[C@H]2O)[C@@H](O)[C@H]1O` [ADP-glucose, adenosine 5′-diphosphoglucose]: the EC50 amounted to 8.2 ± 1.3 µM in experiment [1] (CHO cells cotransfected with receptor and Gαqi3, read-out: EC50 of [Ca2+]i mobilization); 24 ± 4.1 µM in experiment [1] (CHO cells expressing receptor alone, read-out: EC50 of [Ca2+]i mobilization); 2.98 ± 0.22 µM in experiment [1] (setting [3]); 11.8 ± 2.4 µM in experiment [1] (CHO cells, receptor with Gα16, read-out: EC50 of [Ca2+]i mobilization); 2.5 ± 0.82 µM in experiment [2] (HEK 293 cells transiently cotransfected with cloned receptor and Gα16, read-out: EC50 of intracellular Ca2+ release); 2.9 ± 0.51 µM in experiment [2] (setting [4]). The EC50 in the experiment with guinea pig ileum (contractions produced by 0.3 μM histamine, read-out: EC50 of inhibition of histamine-evoked contractions) turned out to be 6.2 ± 1.8 µM; in the experiment on guinea pig ileum (field-stimulated, untreated ileum, read-out: EC50 of inhibition of electrically evoked contractions) it was 6.64 ± 0.4 µM; in the experiment with guinea pig ileum (ileum from pertussis toxin treated animals, read-out: EC50 of inhibition of electrically evoked contractions), 35.5 ± 5.5 µM; with rat arterial tissues (abdominal aorta, precontracted with 0.3 μM phenylephrine), 6.67 ± 1.8 µM; with rat arterial tissues (abdominal aorta, precontracted with 0.3 μM serotonin) it was 3.26 ± 0.12 µM; in the experiment on rat arterial tissues (setting [5]), 20.5 ± 6.3 µM. For the same molecule, the EC50 stood at 3.1 ± 0.3 µM in the experiment on rat arterial tissues (carotid artery, precontracted with 0.3 μM phenylephrine) and 13.8 ± 2.8 µM in the experiment with rat arterial tissues (thoracic aorta, precontracted with 0.3 μM phenylephrine). Besides, the “induction of increase in intracellular Ca2+ / receptor activation” value in experiment [1] was “induced a dose-dependent and transient increase”. Further, in experiment [1], the “increase in intracellular Ca2+ in untransfected cells” value is reported as “not in untransfected cells”. The “[Ca2+]i response in HEK 293 cells” value in experiment [2] was “strong mobilization of [Ca^2+]i”. Also, the “maximal inhibition of histamine-evoked contractions” value with guinea pig ileum (contractions produced by 0.3 μM histamine) is 60%. Besides, the “maximal inhibition of electrically evoked contractions” value was found to be 40% in the experiment on guinea pig ileum (ileum from pertussis toxin treated animals) and 90% in the experiment with guinea pig ileum (maximally effective concentrations, untreated ileum). Also, the “effect on electrically-evoked contractions” value with guinea pig ileum (ileum punctured to release intraluminal content into the bath) is listed as “strong inhibition”. Also, the “effect on field-stimulated contractions” value in the experiment with guinea pig ileum (intraluminal administration) is “no effect”. Besides, the “effect on contractions produced by oxotremorine M” value in the experiment with guinea pig ileum (muscarinic agonist oxotremorine M) is “unaffected”. In addition, the “effect on spontaneous contractions” value in the experiment on guinea pig ileum (spontaneous contractions, ileum preparations) is given as “inhibition of spontaneous contractions”. Besides, the maximal relaxation entry is given as “about 80%” with rat arterial tissues (abdominal aorta, serotonin-precontracted); 40% with rat arterial tissues (setting [5]); 40%-50% in the experiment with rat arterial tissues (phenylephrine-precontracted, highest concentration tested, all three tissues). Besides, in the experiment with rat arterial tissues (thoracic aorta, serotonin-precontracted), the “response of serotonin-precontracted thoracic aorta” value is given as “unresponsive”. Besides, in the experiment on rat arterial tissues (untreated arterial tissue at resting force), the “effect on untreated arterial tissue” value is “no effect”.

With `Nc1ccn([C@@H]2O[C@H](COP(=O)(O)OP(=O)(O)O[C@H]3O[C@H](CO)[C@@H](O)[C@H](O)[C@H]3O)[C@@H](O)[C@H]2O)c(=O)n1` [CDP-glucose], in experiment [1], the “induction of increase in intracellular Ca2+ / receptor activation” value was “only ADP-glucose and ADP-ribose induced a dose-dependent and transient increase”. Moreover, the “[Ca2+]i response in HEK 293 cells” value in experiment [2] is “did not respond”.

In the case of `Nc1ncnc2c1ncn2[C@@H]1O[C@H](CO)[C@@H](O)[C@H]1O` [adenosine], in experiment [1], the “induction of increase in intracellular Ca2+ / receptor activation” value was “only ADP-glucose and ADP-ribose induced a dose-dependent and transient increase”.

As for `Nc1ncnc2c1ncn2[C@@H]1O[C@H](COP(=O)(O)OP(=O)(O)O[C@H]2O[C@H](CO)[C@@H](O)[C@H](O)[C@@H]2O)[C@@H](O)[C@H]1O` [ADP-mannose], the “induction of increase in intracellular Ca2+ / receptor activation” value in experiment [1] is “only ADP-glucose and ADP-ribose induced a dose-dependent and transient increase; also recorded: unable to activate the receptor”.

Consider `Nc1ncnc2c1ncn2[C@@H]1O[C@H](COP(=O)(O)OP(=O)(O)OC[C@H]2OC(O)[C@H](O)[C@@H]2O)[C@@H](O)[C@H]1O` (stereo partly shown) [ADP-ribose], for which, in experiment [1], the “induction of increase in intracellular Ca2+ / receptor activation” value is “partial agonist; also recorded: induced a dose-dependent and transient increase”; the “increase in intracellular Ca2+ in untransfected cells” value is “not in untransfected cells”. Also, the EC50 in experiment [1] (setting [3]) came out at 59.4 ± 7.3 µM. The “[Ca2+]i response in HEK 293 cells” value in experiment [2] is on record as “full agonist”. Besides, the EC50 in experiment [2] (setting [4]) was determined as 38.7 ± 10.6 µM. Further, the “effect on electrically-evoked contractions” value in the experiment with guinea pig ileum (field-stimulated ileum, drug added to bath) is on record as “very similar inhibitory effects”. Further, in the experiment with isolated frog heart, the “effect on action potential in the sinus node” value is “decrease in the action potential duration and rate of rise in the sinus node”; the “effect on heart rate and contraction force” value is “dose-dependent decrease in heart rate and contraction force”. In addition, the “effect on heart rate” value in the experiment with unanesthetised frogs was “reversible increase in heart rate”.

In the case of `Cc1cn([C@H]2C[C@H](O)[C@@H](COP(=O)(O)OP(=O)(O)O[C@H]3O[C@H](CO)[C@@H](O)[C@H](O)[C@H]3O)O2)c(=O)[nH]c1=O` [TDP-glucose], the “induction of increase in intracellular Ca2+ / receptor activation” value in experiment [1] was “only ADP-glucose and ADP-ribose induced a dose-dependent and transient increase”. Further, in experiment [2], the “[Ca2+]i response in HEK 293 cells” value is “did not respond”.

For `Nc1ncnc2c1ncn2[C@@H]1O[C@H](COP(=O)(O)OP(=O)(O)OP(=O)(O)O)[C@@H](O)[C@H]1O` [ATP], the “induction of increase in intracellular Ca2+ / receptor activation” value in experiment [1] was “only ADP-glucose and ADP-ribose induced a dose-dependent and transient increase”.

Consider `Nc1nc2c(ncn2[C@@H]2O[C@H](COP(=O)(O)OP(=O)(O)O[C@H]3O[C@H](CO)[C@@H](O)[C@H](O)[C@H]3O)[C@@H](O)[C@H]2O)c(=O)[nH]1` [GDP-glucose], for which the “induction of increase in intracellular Ca2+ / receptor activation” value in experiment [1] was “only ADP-glucose and ADP-ribose induced a dose-dependent and transient increase”. The “[Ca2+]i response in HEK 293 cells” value in experiment [2] is on record as “did not respond”.

For `Nc1ncnc2c1ncn2[C@@H]1O[C@H](COP(=O)(O)OP(=O)(O)O)[C@@H](O)[C@H]1O` [ADP], the “induction of increase in intracellular Ca2+ / receptor activation” value in experiment [1] was “only ADP-glucose and ADP-ribose induced a dose-dependent and transient increase”.
